Experimental data as given in paper PMC6630718, “Discovery of Novel UV-Filters with Favorable Safety Profiles in the 5-Arylideneimidazolidine-2,4-dione Derivatives Group” (Molecules, 2019).

What was measured:
[1] = In vitro photoprotection study of 2% (w/w) macrogol formulations on PMMA plates
Source text: The composition of formulations and concentration of tested compounds were based on their limited solubility. N-monosubstituted compounds 2a–2e were insoluble at desirable concentrations in the typical solvents used in cosmetic formulations such as alcohols, triacetin, surfactants, and co-surfactants. To dissolve compounds 2a and 2b before incorporation to the formulation DMSO: Tween 20 (1:9 w/w) was used, for less soluble 2c–2e it was necessary to use DMSO alone as solvent. […] Thus the detailed composition of the formulations is as follows: F1–Tween 20 43.2%, PEG-400 25%, PEG-1500 25%, Triacetin 4.8%, tested compound 2%; F2–Tween 20 43.2%, PEG-400 25%, PEG-1500 25%, DMSO 4.8%, tested compound 2%; F3–PEG-400 25%, PEG-1500 25%, DMSO 48%, tested compound 2%. Considering the disadvantages of currently reported macrogol formulations and the low concentration achieved for the tested compounds (2%), we plan to work on cosmetic emulsions containing the most promising derivatives at higher concentrations as well as required excipients including preservatives, antioxidants, etc. This research will be carried out in the near future.
Tested compounds and commercial UV filters as reference standards were incorporated to a neutral macrogel formulation in the concentration of 2%. Prior to the incorporation, compounds 3a–3e and 4f–4h and reference UV-filters were dissolved in a triacetin:Tween 20 (1:9) solvent system. For compounds 2a–2e it was necessary to use DMSO. The final composition of the macrogol formulations is presented in the photoprotective activity section.
In vitro photoprotection study was performed according to EN ISO 24443:2012 [71] with slight modifications. Formulation with tested compound (32.5 mg) was applied on a polymethylmethacrylate plate (PMMA) with the application area 25 cm^2 and 5 µm roughness value to simulate the skin surface (Schonberg GmbH, Hamburg, Germany). As a reference a PMMA plate treated with approximately 15 µL of glycerin was used. Measurements were carried out by reflectance spectrophotometry with SPF-290AS Analyser (Solar Light Company, Glenside, PA, USA) equipped with integrating sphere controlled by WinSPF version X.X. software. For each sample two plates were prepared, absorbance measures were performed on 6 different positions of the plate from 290 to 400 nm with 1 nm steps. The results were expressed as an average of data from 12 scans.

[2] = Ultraviolet spectroscopy in methanol solutions; assay type: physicochemical; settings: for Absorption Range: scan range 290–400 nm
Protocol: Spectra with a scan range of 290–400 nm were recorded in 50 or 25 μM methanol solutions, in 1 cm path length, 1.5 mL quartz cuvettes on a U-2800 double beam spectrophotometer (Hitachi, Tokyo, Japan) controlled by UV Solution version 2.2 software. The molar extinction coefficient at maximum absorption (εmax) of tested compounds was determined in methanol as the slope of the linear regression of absorbance vs. concentration of tested compound (from 10 to 50 μM or 2.5 to 30 μM).

[3] = In vitro stability in mouse liver microsomes; assay type: in vitro ADME; settings: mouse liver microsomes
Protocol: Mouse liver microsomes (MLMs) were used to investigate the phase I metabolism of selected compounds (2c, 2d, 3b, 4g, 5a) and the reference substance BP-2. Samples composed of test compound (20 µM), MLMs (0.8 mg/mL) and potassium phosphate buffer (100 mM, pH 7.4) were preincubated prior to addition of NADPH-regenerating system. NADPH-regenerating system contained NADP, glucose-6-phosphate, glucose-6-phosphate dehydrogenase and potassium phosphate buffer (100 mM, pH 7.4). Control incubations were performed in the absence of the NADPH-regenerating system and in case of esters (2c, 2d, 3b and 4g) without the mouse liver microsomes solution to determine spontaneous hydrolysis. Incubations were conducted at 37 °C for at least 15 min up to 60 min. The reactions were stopped by the addition of 250 μL ice-cold methanol containing internal standard PTX (20 μM). The mixture was then centrifuged. Supernatant analysis was performed using UPLC/MS (Waters Corporation). The assays were repeated two times. The in vitro half times (t1/2) for test compounds were determined from the slope of the linear regression of ln % parent compound remaining versus incubation time. The calculated t1/2 was incorporated into the following equation to obtain intrinsic clearance: (Clint) = (volume of incubation [µL]/ protein in the incubation [mg]) × 0.693 / t1/2 [74].

[4] = Photostability in methanol solutions (solar light simulator); assay type: physicochemical; parameters: λmax pre-irradiation: unit not given beside the values; settings: methanol solution; for % of initial AUC post-irradiation / λmax post-irradiation: 1h irradiation at 500 W/m2
Protocol: (§1) The photostability evaluation of compounds was performed both in methanol solutions and in macrogol formulations. Irradiation of samples according to previous studies was conducted for 1 h at 500 W/m^2 (cumulative dose of ultraviolet radiation 218 kJ/m^2) with solar light simulator (Suntest CPS+, Atlas, Linsengericht, Germany) equipped with an optical filter cutting off wavelengths shorter than 290 nm and IR-block filter to neutralize thermal effects. The UV absorption spectrum of the samples were analysed post-irradiation and compared with pre-irradiation results. UPLC-MS/MS analyses were also performed.
(§2) Methanol solutions were tested at concentration 25 or 50 µM in quartz cuvettes with the PTFE stopper to prevent evaporation or leaking of the solvent. Macrogol formulations (2% w/w) were tested on PMMA plates (1.3 mg/cm^2). After post-irradiation measure of UV absorption, exposed and unexposed plates were washed with 5 mL of methanol, then mixtures were filtered and analysed by UPLC-MS/MS. All analyses were performed in duplicates.

[5] = Ames MPF Penta 2 microplate mutagenicity assay, TA100; assay type: cell-based; settings: Salmonella typhimurium; TA100, +S9, 1.25 µg/mL; read-out: FIB (fold induction over baseline), positive control
Protocol: (§3) The assay is a liquid microplate modification of the traditional Salmonella test. During the procedure, bacteria are exposed to different concentrations of a test compound for 90 min in a medium containing sufficient histidine (S. typhimurium) or tryptophan (E. coli) to support cell divisions. Then, the cultures are diluted in pH indicator medium lacking histidine or tryptophan and aliquoted into 48 wells of a 384-well plate. Within 48 hours, cells that have undergone reversion to amino acid prototrophy will grow into colonies. Bacterial metabolism reduces pH of the medium, changing the color of that well from purple to yellow (https://www.xenometrix.ch).
(§4) The following strains were used in the study: S. typhimurium TA98, TA100, TA1535, TA1537 and E. coli wp2 uvrA[pKM101]. TA100, TA1535 and E. coli strains are used for the detection of base substitution mutations, whereas TA98 and TA1537 are utilized for the detection of frameshift mutations. S. typhimurium strains have GC base pairs, whereas E. coli strain has AT base pair at their primary reversion site and detect certain oxidizing mutagens, cross-linking agents and hydrazines.
(§5) The test procedure provided by Xenometrix (https://www.xenometrix.ch) and described earlier was followed. Briefly, the bacterial strains were grown overnight in exposure medium and exposed to test compounds 4g and 3b in 24-well plates for 90 min at 37 °C with agitation in the absence (–S9) or presence (+S9) of 4.5% phenobarbital/ β-naphthoflavone-induced rat liver S9. Compounds 4g and 3b were dissolved in DMSO and tested at final concentrations of 0.1, 0.2 and 0.5 mM. After the preincubation, the cultures were diluted in the indicator medium and the contents of each 24-well culture were distributed into 48 wells on a 384-well plate and incubated further for 48 h at 37 °C without agitation. After the exposure, the number of wells containing bacteria was scored by eye for yellow wells. Positive and negative controls were included in the assay, and all doses were done in triplicate.
(§6) Pure DMSO was used as the negative control.
(§7) The fold increase of revertants relative to the solvent control was determined by dividing the mean number of positive wells at each dose by the solvent control at baseline. The solvent control at baseline was defined as the mean number of positive wells in the solvent control plus one standard deviation (SD). When an increase of more than 2-fold relative to the baseline at more than one dose with a dose–response is observed the sample is classified as positive, whereas when no response >2 times the baseline and no dose–response is stated the sample is negative.

[6] = Ames MPF Penta 2 microplate mutagenicity assay, TA98; assay type: cell-based; settings: Salmonella typhimurium, read-out: FIB (fold induction over baseline), positive control
Protocol: as §3, §4, §5, §6, §7

[7] = Photostability in macrogol formulations on PMMA plates (solar light simulator); assay type: physicochemical
Protocol: After irradiation of thin layer of formulations applied on PMMA plates, their photoprotective parameters were determined and compared with the pre-irradiation results. The study gives an overview on functional photostability of the tested compounds. It is an important test, because the photostability of some compounds in low concentrated solutions may meaningfully differ from results obtained for higher concentrations used in sunscreen products. […] In the present study both UVB and UVA-absorbers were tested, so the changes in SPFin vitro, UVA PF and AUC after irradiation are taken into account as a measure of photostability.
as §1, §2

in vitro = settings: Salmonella typhimurium
Protocol: as §3, §4, §5, §6, §7

[8] = Ames MPF Penta 2 microplate mutagenicity assay, TA1535; settings: Salmonella typhimurium, FIB (fold induction over baseline), positive control, TA1535, –S9, 100 µg/mL
Protocol: as §3, §4, §5, §6, §7

[9] = 2% (w/w) macrogol formulation F1 (Triacetin 4.8%)
[10] = 2% (w/w) macrogol formulation F1 (Tween 20, PEG-400, PEG-1500, Triacetin 4.8%)
[11] = 2% (w/w) macrogol formulation F2 (DMSO 4.8%)
[12] = after 1 h irradiation at 500 W/m^2, formulation F2 (DMSO 4.8%)
[13] = after 1 h irradiation at 500 W/m^2, formulation F3 (DMSO 48%)
[14] = after 1 h irradiation at 500 W/m^2, formulation F1

## COc1ccc(C(=O)CC(=O)c2ccc(C(C)(C)C)cc2)cc1 [Avobenzone, butyl methoxy-dibenzoylmethane, reference compound]
[1]; [9]
  UVA PF: 7.56 ± 0.19
  UVA/UVB Ratio: 2.49 ± 0.03
  λc (critical wavelength): 381 nm
[1]; [10]
  SPFin vitro: 2.23 ± 0.03
[2]
  εmax: 36820 M⁻¹ cm⁻¹
  λmax: 358 nm
  Absorption Range: 290–393 nm

## COc1ccc(/C=C2\NC(=O)NC2=O)cc1OC [Compound 1e, (Z)-5-(3,4-Dimethoxybenzylidene)imidazolidine-2,4-dione]
[2]
  εmax: 28440 M⁻¹ cm⁻¹
  λmax: 341 nm
  Absorption Range: 290–384 nm
[3]
  Probable Transformation: O-dealkylation
[3]; mouse, pH 7.4, mouse liver microsomes 0.8 mg/mL, 20 µM compound, NADPH-regenerating system, 37 °C, read-out: t ½
  half-life at 20 µM: 1.02 h
[3]; mouse, pH 7.4, mouse liver microsomes, calculated from t1/2
  microsomal CLint at 20 µM: 14 µL/min/mg
[4]
  λmax pre-irradiation: 341
  % of initial AUC post-irradiation: 95.38%
  λmax post-irradiation: 346

## Nc1ccc2cc3ccccc3cc2c1 [Compound 2-AA, 2-aminoanthracene, reference compound]
[5]
  fold induction at 90 min, 1.25 µg/mL: 3.1
[6]; TA98, +S9, 0.5 µg/mL
  fold induction at 90 min, 0.5 µg/mL: 12.6

## O=[N+]([O-])c1ccc2c(c1)Cc1ccccc1-2 [Compound 2-NF, 2-nitrofluorene, reference compound]
[6]; S. typhimurium TA98 without S9 (–S9), TA98, –S9, 2 µg/mL
  fold induction at 90 min, 2 µg/mL: 25.3

## CCOC(=O)CN1C(=O)N/C(=C\c2ccc(OC)cc2)C1=O [Compound 2b, Ethyl (Z)-2-(4-(4-methoxybenzylidene)-2,5-dioxoimidazolidin-1-yl)acetate]
[1]; [11]
  SPFin vitro: 3.20 ± 0.07
  UVA PF: 4.29 ± 0.11
  UVA/UVB Ratio: 1.20 ± 0.00
  λc (critical wavelength): 363 nm
[7]; DMSO in formulation reduced from 48 to 4.8%
  improvement of the functional photostability: 30.2%
[7]; [12]
  % of Initial AUC: 59.55%
  % of Initial SPFin vitro: 57.19%
  % of Initial UVA PF: 54.31%
[7]; [13]
  % of Initial AUC: 35.28%
  % of Initial SPFin vitro: 36.51%
  % of Initial UVA PF: 24.13%
[7]; formulation with DMSO 48% (F3), extreme values
  decrease of tested parameters (SPFin vitro, UVA PF, AUC) after irradiation: 75.9%
other
  melting point: 178 to 179 °C
[2]
  εmax: 31920 M⁻¹ cm⁻¹
  λmax: 334 nm
  Absorption Range: 290–372 nm
[4]
  λmax pre-irradiation: 334
  % of initial AUC post-irradiation: 95.67%
  λmax post-irradiation: 341

## Nc1c2ccccc2nc2ccccc12 [Compound 9-AAc, 9-aminoacridine, reference compound]
In vitro
  fold induction at 90 min, 15 µg/mL: 48

## NNc1ccn([C@@H]2O[C@H](CO)[C@@H](O)[C@H]2O)c(=O)n1 [Compound N4-ACT, N4-aminocytidine, reference compound]
[8]
  fold induction at 90 min, 100 µg/mL: 40

## CCCCC(CC)COC(=O)C=Cc1ccc(OC)cc1 (stereo not shown) [EHMC, ethylhexyl methoxycinnamate, reference compound]
[1]; [9]
  UVA PF: 1.34 ± 0.05
  UVA/UVB Ratio: 0.05 ± 0.01
  λc (critical wavelength): 321 nm
[1]; [10]
  SPFin vitro: 4.96 ± 0.33
[7]; [14]
  % of Initial AUC: 78.45%
  % of Initial SPFin vitro: 80.83%
  % of Initial UVA PF: 88.76%
[2]
  εmax: 22990 M⁻¹ cm⁻¹
  λmax: 309 nm
  Absorption Range: 290–339 nm
[4]
  decrease of AUC after irradiation: 36.7%
  λmax pre-irradiation: 309
  % of initial AUC post-irradiation: 63.26%
  λmax post-irradiation: 307

## CCCCC(CC)COC(=O)C(C#N)=C(c1ccccc1)c1ccccc1 (stereo not shown) [Octocrylene, octocrylene, reference compound]
[1]; [9]
  UVA PF: 1.20 ± 0.03
  UVA/UVB Ratio: 0.12 ± 0.01
  λc (critical wavelength): 327 nm
[1]; [10]
  SPFin vitro: 2.87 ± 0.16
[2]
  εmax: 13650 M⁻¹ cm⁻¹
  λmax: 302 nm
  Absorption Range: 290–349 nm
